Source: CN114106008A, “一种从丹参中提取分离的二萜醌类化合物及其方法和应用” (Chengdu Push Bio Technology Co ltd, priority 2021, dated 2022)

How the values were obtained:
[1] = tested on: human diffuse large B lymphoma cells TMD-8 [人弥漫大B淋巴瘤细胞TMD-8]; assay: MTT proliferation inhibition, TMD-8 cells, 72 h; format: cell-based
[2] = tested on: human myelomonocytic leukemia cells MV-4-11 [人髓性单核细胞白血病细胞 MV-4-11]; assay: MTT proliferation inhibition, MV4-11 cells, 72 h; format: cell-based
[3] = tested on: human cervical cancer cells HELA [人宫颈癌细胞HELA]; assay: MTT proliferation inhibition, HELA cells, 72 h; format: cell-based; details: within the measured range (0.625-20 μg/ml)
[4] = Water solubility (statement in words); format: physicochemical
[5] = tested on: human liver cancer cells HEPG-2 [人肝癌细胞HEPG-2]; assay: MTT proliferation inhibition, HEPG-2 cells, 72 h; format: cell-based; details: 0.625-20 μg/ml
[6] = tested on: human large cell lung cancer cells H460 [人大细胞肺癌细胞 H460]; assay: MTT proliferation inhibition, H460 cells, 72 h; format: cell-based
[7] = tested on: human acute myeloid leukemia cells MOLM-13 [人急性髓系白血病细胞MOLM-13]; assay: MTT proliferation inhibition, MOLM-13 cells, 72 h; format: cell-based

呋喃并[2 ' ',3 ' ':5 ' ',6 ' ']萘并[1 ' ',2'':7 ',8 ']环十二烷[1 ',2':5,6]萘并[1,2-b]呋喃-10,11,21,22-四酮,6,7,8,9,19,20-六氢-1,12,17-三甲基-6-亚甲基-,(17E)- [四氢甘西鼠尾新酮A]
inhibition, concentration dependence ([1]; Figure 3, 0.625-20 μg/ml): 呈剂量依赖性 | IC50 ([1]; MTT): 1.388 µg/mL | inhibition, concentration dependence ([2]; Figure 3, 0.625-20 μg/ml): 呈剂量依赖性 | IC50 ([2]; MTT): 1.239 µg/mL | in vitro inhibitory activity [3]: 在测量范围内未发现抑制活性 | water solubility [4]: 水溶性较差 | in vitro inhibitory activity [5]: 体外抑制活性较弱 | inhibition, concentration dependence ([6]; Figure 3, 0.625-20 μg/ml): 呈剂量依赖性 | IC50 ([6]; MTT): 1.131 µg/mL | inhibition, concentration dependence ([7]; Figure 3, 0.625-20 μg/ml): 呈剂量依赖性 | IC50 ([7]; MTT): 1.9 µg/mL
